According to article PMC10518257 (Nature Cancer, 2023):
pIC50: −log10 of the molar value. Several values for one entry are separate records, joined by “and”; a condition that tells them apart may be missing. Identical values can stand only once.

Experiments:
Assay in all cases: Growth inhibition (alamarBlue, 96 h)
Type in all cases: cell-based, human
HBECp53-EV cells = conditions: for raw viability signal (Source Data Fig. 3b-c): HBEC-EV, replicate sets
LC-2/ad cells = conditions: for raw viability signal (Source Data Fig. 3b-c): LC-2/Ad, replicate sets
LUAD-0057BS1 cells = conditions: for raw viability signal (Source Data Fig. 3b-c): LUAD-0057BS1, replicate sets
LUAD-0087AS2 cells = conditions: for raw viability signal (Source Data Fig. 3b-c): LUAD-0087AS2, replicate sets

`COc1cc2c(Nc3ccc(Br)cc3F)ncnc2cc1OCC1CCN(C)CC1` [Vandetanib] was tested, and the “raw viability signal (Source Data Fig. 3b-c)” value (“raw viability signal” for short) (HBECp53-EV cells; 0.01 nM) was 25097.6 and 25887.6 and 17676.4, the “raw viability signal” value (HBECp53-EV cells; 0.1 nM) was 26759 and 26118.3 and 17425.7 and the “raw viability signal” value (HBECp53-EV cells; 1 nM) was 23471.2 and 28489.7 and 18981.5. The “raw viability signal” value (HBECp53-EV cells; 10 nM) was 23607.2 and 26549.6 and 18321.2, the “raw viability signal” value (HBECp53-EV cells; 100 nM) was 25750 and 25003 and the “raw viability signal” value (HBECp53-EV cells; 1000 nM) was 22139.5 and 31238.9 and 18759.8. The “raw viability signal” value (HBECp53-EV cells; 10000 nM) was 1428.02 and 2282.52 and 1103.83, the pIC50 (HBECp53-EV cells; Homo sapiens, read-out: IC50 for Inhibition of Growth (95% CI), HBECp53-EV, alamarBlue, 96 h) was 5.45 and the pIC50 (LC-2/ad cells; Homo sapiens, read-out: IC50 for Inhibition of Growth (95% CI), LC-2/ad, alamarBlue, 96 h) was 7.21. For the same compound, the “raw viability signal” value (LC-2/ad cells; 0.01 nM) was 12607.4 and 20233.4, the “raw viability signal” value (LC-2/ad cells; 0.1 nM) was 13108.5 and 20488.5 and the “raw viability signal” value (LC-2/ad cells; 1 nM) was 11956.2 and 19814.6. For the same compound, the “raw viability signal” value (LC-2/ad cells; 10 nM) was 11578.8 and 17158.6, the “raw viability signal” value (LC-2/ad cells; 100 nM) was 4528.4 and 9691.17 and the “raw viability signal” value (LC-2/ad cells; 1000 nM) was 1439.52 and 1771.38. For the same compound, the “raw viability signal” value (LC-2/ad cells; 10000 nM) was 850.396, the pIC50 (LUAD-0057BS1 cells; Homo sapiens, read-out: IC50 for Inhibition of Growth (95% CI), LUAD-0057BS1, alamarBlue, 96 h) was 6.44 and the “raw viability signal” value (LUAD-0057BS1 cells; 0.01 nM) was 17034.2 and 23597.8. The “raw viability signal” value (LUAD-0057BS1 cells; 0.1 nM) was 16283.3 and 21948.2, the “raw viability signal” value (LUAD-0057BS1 cells; 1 nM) was 16965.6 and 22300.3 and the “raw viability signal” value (LUAD-0057BS1 cells; 10 nM) was 14389.1 and 16776.9 and 22078.9. For the same compound, the “raw viability signal” value (LUAD-0057BS1 cells; 100 nM) was 13528.1 and 13127 and 19841.4, the “raw viability signal” value (LUAD-0057BS1 cells; 1000 nM) was 5066.49 and 6132.7 and 5277.44 and the “raw viability signal” value (LUAD-0057BS1 cells; 10000 nM) was 837.183 and 963.777 and 796.086. For the same compound, the pIC50 (LUAD-0087AS2 cells; Homo sapiens, read-out: IC50 for Inhibition of Growth (95% CI), LUAD-0087AS2, alamarBlue, 96 h) was 6.58, the “raw viability signal” value (LUAD-0087AS2 cells; 0.01 nM) was 12332.1 and 13934.5 and 13930.1 and the “raw viability signal” value (LUAD-0087AS2 cells; 0.1 nM) was 10316.9 and 14234.5 and 13979.9. The “raw viability signal” value (LUAD-0087AS2 cells; 1 nM) was 14707.2 and 14551.9 and 13357, the “raw viability signal” value (LUAD-0087AS2 cells; 10 nM) was 9639.26 and 14042.7 and the “raw viability signal” value (LUAD-0087AS2 cells; 100 nM) was 8268.62 and 14329.9 and 11925.1. For the same compound, the “raw viability signal” value (LUAD-0087AS2 cells; 1000 nM) was 3107.74 and 4188.25 and 2159.6 and 1975.84 and the “raw viability signal” value (LUAD-0087AS2 cells; 10000 nM) was 1739.1 and 865.962 and 878.418 and 892.669.
